According to the NIST ThermoML archive (doi:10.1016/j.jct.2019.04.017):
± gives the expanded uncertainty stated by the source.

Test: xn = mol fraction of the nth substance listed
Details: 96 kPa, Liquid; for electrical conductivity: Frequency=0.001 MHz, Alternating current cell with electrodes; for viscosity: Cone and plate viscometry

C1CCC2=NCCCN2CC1 [1,8-diaza-7-bicyclo[5.4.0]undecene] + OCC(O)CO
electrical conductivity (308.1 K, x1 = 0.1115): 0.0567 ± 0.0022 S/m
electrical conductivity (308.1 K, x1 = 0.1266): 0.0543 ± 0.0022 S/m
electrical conductivity (308.1 K, x1 = 0.1672): 0.0468 ± 0.0019 S/m
electrical conductivity (308.1 K, x1 = 0.2): 0.0398 ± 0.0016 S/m
electrical conductivity (308.1 K, x1 = 0.2504): 0.0263 ± 0.001 S/m
electrical conductivity (308.1 K, x1 = 0.287): 0.0194 ± 0.00077 S/m
electrical conductivity (308.1 K, x1 = 0.3338): 0.0137 ± 0.00054 S/m
electrical conductivity (308.1 K, x1 = 0.4003): 0.00571 ± 0.00023 S/m
electrical conductivity (308.1 K, x1 = 0.5): 0.00128 ± 5.1e-05 S/m
electrical conductivity (308.1 K, x1 = 0.5656): 0.000502 ± 2e-05 S/m
electrical conductivity (308.1 K, x1 = 0.6255): 0.000251 ± 9.9e-06 S/m
electrical conductivity (308.1 K, x1 = 0.75): 0.000346 ± 1.5e-05 S/m
electrical conductivity (308.1 K, x1 = 0.753): 0.000346 ± 1.4e-05 S/m
electrical conductivity (308.1 K, x1 = 0.8333): 0.000614 ± 2.7e-05 S/m
electrical conductivity (308.1 K, x1 = 0.8334): 0.000614 ± 2.4e-05 S/m
electrical conductivity (308.1 K, x1 = 0.9094): 0.000788 ± 3.1e-05 S/m
electrical conductivity (308.1 K, x1 = 0.95): 0.000791 ± 3.1e-05 S/m
electrical conductivity (308.1 K, x1 = 0.975): 0.000668 ± 2.6e-05 S/m
electrical conductivity (308.1 K, x1 = 1): 0.00032 ± 1.3e-05 S/m
electrical conductivity (313.1 K, x1 = 0.0502): 0.0666 ± 0.0026 S/m
electrical conductivity (313.1 K, x1 = 0.0914): 0.0785 ± 0.0031 S/m
electrical conductivity (313.1 K, x1 = 0.1115): 0.0761 ± 0.003 S/m
electrical conductivity (313.1 K, x1 = 0.1266): 0.0699 ± 0.0028 S/m
electrical conductivity (313.1 K, x1 = 0.1672): 0.0613 ± 0.0024 S/m
electrical conductivity (313.1 K, x1 = 0.2): 0.0497 ± 0.002 S/m
electrical conductivity (313.1 K, x1 = 0.2504): 0.0335 ± 0.0013 S/m
electrical conductivity (313.1 K, x1 = 0.287): 0.0245 ± 0.00097 S/m
electrical conductivity (313.1 K, x1 = 0.3338): 0.0158 ± 0.00063 S/m
electrical conductivity (313.1 K, x1 = 0.4003): 0.00702 ± 0.00028 S/m
electrical conductivity (313.1 K, x1 = 0.5): 0.00169 ± 6.7e-05 S/m
electrical conductivity (313.1 K, x1 = 0.5656): 0.000644 ± 2.5e-05 S/m
electrical conductivity (313.1 K, x1 = 0.6255): 0.00034 ± 1.3e-05 S/m
electrical conductivity (313.1 K, x1 = 0.753): 0.000447 ± 1.8e-05 S/m
electrical conductivity (313.1 K, x1 = 0.8334): 0.00076 ± 3e-05 S/m
electrical conductivity (313.1 K, x1 = 0.9094): 0.000915 ± 3.6e-05 S/m
electrical conductivity (313.1 K, x1 = 0.95): 0.000857 ± 3.4e-05 S/m
electrical conductivity (313.1 K, x1 = 0.975): 0.000719 ± 2.9e-05 S/m
electrical conductivity (313.1 K, x1 = 1): 0.000356 ± 1.4e-05 S/m
viscosity (318.1 K, x1 = 0.0501): 294.1 ± 25 mPa·s
viscosity (318.1 K, x1 = 0.0909): 345.9 ± 30 mPa·s
viscosity (318.1 K, x1 = 0.1): 343 ± 30 mPa·s
viscosity (318.1 K, x1 = 0.1667): 359.5 ± 32 mPa·s
viscosity (318.1 K, x1 = 0.2): 370.7 ± 33 mPa·s
viscosity (318.1 K, x1 = 0.2153): 376.5 ± 34 mPa·s
viscosity (318.1 K, x1 = 0.2306): 355.8 ± 31 mPa·s
viscosity (318.1 K, x1 = 0.3059): 341.7 ± 30 mPa·s
viscosity (318.1 K, x1 = 0.3333): 316.5 ± 27 mPa·s
viscosity (318.1 K, x1 = 0.4011): 279.6 ± 23 mPa·s
viscosity (318.1 K, x1 = 0.5): 223.8 ± 18 mPa·s
viscosity (318.1 K, x1 = 0.5632): 169.8 ± 13 mPa·s
viscosity (318.1 K, x1 = 0.625): 109 ± 7.7 mPa·s
viscosity (318.1 K, x1 = 0.75): 43.75 ± 2.9 mPa·s
viscosity (318.1 K, x1 = 0.8333): 20.71 ± 1.4 mPa·s
viscosity (318.1 K, x1 = 1): 6.08 ± 0.39 mPa·s
electrical conductivity (318.1 K, x1 = 0.0502): 0.0795 ± 0.0032 S/m
electrical conductivity (318.1 K, x1 = 0.0914): 0.0971 ± 0.0039 S/m
electrical conductivity (318.1 K, x1 = 0.1): 0.0947 ± 0.0042 S/m
electrical conductivity (318.1 K, x1 = 0.1115): 0.0924 ± 0.0037 S/m
electrical conductivity (318.1 K, x1 = 0.1266): 0.0877 ± 0.0035 S/m
electrical conductivity (318.1 K, x1 = 0.1672): 0.0735 ± 0.0029 S/m
electrical conductivity (318.1 K, x1 = 0.2): 0.0601 ± 0.0024 S/m
electrical conductivity (318.1 K, x1 = 0.2504): 0.041 ± 0.0016 S/m
electrical conductivity (318.1 K, x1 = 0.287): 0.0303 ± 0.0012 S/m
electrical conductivity (318.1 K, x1 = 0.3338): 0.0192 ± 0.00076 S/m
electrical conductivity (318.1 K, x1 = 0.4003): 0.00895 ± 0.00035 S/m
electrical conductivity (318.1 K, x1 = 0.5): 0.00221 ± 8.8e-05 S/m
electrical conductivity (318.1 K, x1 = 0.5656): 0.000939 ± 3.7e-05 S/m
electrical conductivity (318.1 K, x1 = 0.6255): 0.000466 ± 1.8e-05 S/m
electrical conductivity (318.1 K, x1 = 0.75): 0.000559 ± 2.5e-05 S/m
electrical conductivity (318.1 K, x1 = 0.753): 0.000559 ± 2.2e-05 S/m
electrical conductivity (318.1 K, x1 = 0.8333): 0.00087 ± 3.9e-05 S/m
electrical conductivity (318.1 K, x1 = 0.8334): 0.00087 ± 3.4e-05 S/m
electrical conductivity (318.1 K, x1 = 0.9094): 0.00101 ± 4e-05 S/m
electrical conductivity (318.1 K, x1 = 0.95): 0.000949 ± 3.8e-05 S/m
electrical conductivity (318.1 K, x1 = 0.975): 0.000789 ± 3.1e-05 S/m
electrical conductivity (318.1 K, x1 = 1): 0.000382 ± 1.5e-05 S/m
electrical conductivity (323.1 K, x1 = 0.0502): 0.0955 ± 0.0038 S/m
electrical conductivity (323.1 K, x1 = 0.0914): 0.118 ± 0.0047 S/m
electrical conductivity (323.1 K, x1 = 0.1115): 0.107 ± 0.0043 S/m
electrical conductivity (323.1 K, x1 = 0.1266): 0.101 ± 0.004 S/m
electrical conductivity (323.1 K, x1 = 0.1672): 0.0882 ± 0.0035 S/m
electrical conductivity (323.1 K, x1 = 0.2): 0.071 ± 0.0028 S/m
electrical conductivity (323.1 K, x1 = 0.2504): 0.0491 ± 0.0019 S/m
electrical conductivity (323.1 K, x1 = 0.287): 0.0358 ± 0.0014 S/m
electrical conductivity (323.1 K, x1 = 0.3338): 0.0233 ± 0.00092 S/m
electrical conductivity (323.1 K, x1 = 0.4003): 0.0107 ± 0.00042 S/m
electrical conductivity (323.1 K, x1 = 0.5): 0.00279 ± 0.00011 S/m
electrical conductivity (323.1 K, x1 = 0.5656): 0.00113 ± 4.5e-05 S/m
electrical conductivity (323.1 K, x1 = 0.6255): 0.000604 ± 2.4e-05 S/m
electrical conductivity (323.1 K, x1 = 0.753): 0.000667 ± 2.6e-05 S/m
electrical conductivity (323.1 K, x1 = 0.8334): 0.00102 ± 4e-05 S/m
electrical conductivity (323.1 K, x1 = 0.9094): 0.00111 ± 4.4e-05 S/m
electrical conductivity (323.1 K, x1 = 0.95): 0.00104 ± 4.1e-05 S/m
electrical conductivity (323.1 K, x1 = 0.975): 0.000841 ± 3.3e-05 S/m
electrical conductivity (323.1 K, x1 = 1): 0.000423 ± 1.7e-05 S/m
viscosity (328.1 K, x1 = 0.0501): 152.2 ± 11 mPa·s
viscosity (328.1 K, x1 = 0.0909): 175 ± 13 mPa·s
viscosity (328.1 K, x1 = 0.1): 177.4 ± 13 mPa·s
viscosity (328.1 K, x1 = 0.1667): 182.5 ± 14 mPa·s
viscosity (328.1 K, x1 = 0.2): 184.3 ± 14 mPa·s
viscosity (328.1 K, x1 = 0.2153): 186.8 ± 14 mPa·s
viscosity (328.1 K, x1 = 0.2306): 177.8 ± 13 mPa·s
viscosity (328.1 K, x1 = 0.3059): 159.5 ± 12 mPa·s
viscosity (328.1 K, x1 = 0.3333): 155 ± 11 mPa·s
viscosity (328.1 K, x1 = 0.4011): 138.5 ± 10 mPa·s
viscosity (328.1 K, x1 = 0.5): 105.4 ± 7.4 mPa·s
viscosity (328.1 K, x1 = 0.5632): 83.62 ± 5.7 mPa·s
viscosity (328.1 K, x1 = 0.625): 57.48 ± 3.8 mPa·s
viscosity (328.1 K, x1 = 0.75): 26.15 ± 1.7 mPa·s
viscosity (328.1 K, x1 = 0.8333): 13.46 ± 0.87 mPa·s
viscosity (328.1 K, x1 = 1): 4.91 ± 0.32 mPa·s
electrical conductivity (328.1 K, x1 = 0.0502): 0.11 ± 0.0043 S/m
electrical conductivity (328.1 K, x1 = 0.0914): 0.132 ± 0.0052 S/m
electrical conductivity (328.1 K, x1 = 0.1): 0.132 ± 0.0058 S/m
electrical conductivity (328.1 K, x1 = 0.1115): 0.129 ± 0.0051 S/m
electrical conductivity (328.1 K, x1 = 0.1266): 0.126 ± 0.005 S/m
electrical conductivity (328.1 K, x1 = 0.1672): 0.103 ± 0.0041 S/m
electrical conductivity (328.1 K, x1 = 0.2): 0.0859 ± 0.0034 S/m
electrical conductivity (328.1 K, x1 = 0.2504): 0.0585 ± 0.0023 S/m
electrical conductivity (328.1 K, x1 = 0.287): 0.0432 ± 0.0017 S/m
electrical conductivity (328.1 K, x1 = 0.3338): 0.0271 ± 0.0011 S/m
electrical conductivity (328.1 K, x1 = 0.4003): 0.0131 ± 0.00052 S/m
electrical conductivity (328.1 K, x1 = 0.5): 0.00347 ± 0.00014 S/m
electrical conductivity (328.1 K, x1 = 0.5656): 0.0015 ± 5.9e-05 S/m
electrical conductivity (328.1 K, x1 = 0.6255): 0.0008 ± 3.2e-05 S/m
electrical conductivity (328.1 K, x1 = 0.75): 0.000826 ± 3.7e-05 S/m
electrical conductivity (328.1 K, x1 = 0.753): 0.000826 ± 3.3e-05 S/m
electrical conductivity (328.1 K, x1 = 0.8333): 0.00115 ± 5.1e-05 S/m
electrical conductivity (328.1 K, x1 = 0.8334): 0.00115 ± 4.5e-05 S/m
electrical conductivity (328.1 K, x1 = 0.9094): 0.0012 ± 4.8e-05 S/m
electrical conductivity (328.1 K, x1 = 0.95): 0.00112 ± 4.4e-05 S/m
electrical conductivity (328.1 K, x1 = 0.975): 0.000928 ± 3.7e-05 S/m
electrical conductivity (328.1 K, x1 = 1): 0.000444 ± 1.8e-05 S/m
